Source: US7910624B1, “Compositions for the treatment of blood disorders” (The Trustees of Boston University, priority 1995, dated 2011)

Tests used:
[1] = test system: Human mammary carcinoma cells (MCF-7); assay: Human mammary carcinoma cell viability by FACS; assay type: cell-based; conditions: 4 days
Protocol: Human mammary carcinoma cells (MCF-7) were cultured alone (controls) and with arginine butyrate or isobutyramide for 4 days. Viability was assayed by FACS after incubation with a fluorescent dye taken up by viable cells (FIG. 6). Growth was decreased by 50% with isobutyramide at 1.0 mM, about 60% with arginine butyrate at 0.5 mM, and greater than 90% with arginine butyrate at 1.0 mM.

[2] = test system: erythroid progenitor cells cultured from human cord blood; assay: Fetal globin expression in human cell cultures (3H-leucine labelled globin chains, densitometry); assay type: cell-based
Procedure, shortened: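 Human cord-blood mononuclear cells were grown in IMDM with 30% FCS and 2 U/ml erythropoietin, with compound present for 12–13 days or overnight. Colonies were labelled with 3H-leucine and chased overnight in leucine-free medium with compound. Globin chains were quantified by electrophoresis with Coomassie densitometry and autoradiography, relative to untreated cells from the same donor.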

[3] = test system: proximal promoter of the gamma globin gene in K562 cells; assay: Gamma globin promoter-neomycin (NEO) transfection, colony survival in G418; assay type: cell-based, human; conditions: 1 mM, 8 weeks
Protocol: Gamma globin promoter-neomycin transfection experiments were performed to determine if compounds act by inducing an increase in activity from the proximal promoter of the gamma globin gene. Constructs containing 61 by of the proximal gamma globin promoter were linked to the reporter gene for neomycin phosphotransferase (NEO) and transfected into permissive K562 cells by electroporation. After 18 hours, transfected cells were passed at 10^3 cells per well into RPMI media containing G418 (neomycin), which kills all mammalian cells unless the gene for NEO is expressed. Phenoxyacetic acid and thiophenoxyacetic acid were added to some of the cells plated into the RPMI/G418 media at concentrations of 1 mM. Cultures were incubated for 8 weeks with media changes performed as needed. Colonies which survived and grew in the presence of G418 were scored and the number of such colonies was compared to those generated when the cells were plated into G418 media without the test compounds. No colonies in the 24 wells survived in the absence of compounds. There was a greater than 6-fold (>600%) increase in proportions of colonies surviving the presence of phenoxyacetic acid (6/24 wells) and a three-fold (300%) increase in survival in the presence of thiophenoxyacetic acid (3/24 wells).

| SMILES | decrease of growth of MCF-7 ([1]; 0.5 mM) | decrease of growth of MCF-7 ([1]; 1.0 mM) | Gamma Increase ([2]; Exp. A, 0.1 mM, 12-13 days, above untreated cells) | Gamma/(Gamma + Beta) ([2]; Exp. A, 0.1 mM, 12-13 days, untreated 76.0%) | Gamma Increase ([2]; Exp. B, 0.5 mM, 12-13 days) | Gamma/(Gamma + Beta) ([2]; Exp. B, 0.5 mM, 12-13 days, untreated 25.4%, 27.5%) | Gamma Increase ([2]; Exp. C, 0.5 mM, overnight) | Gamma/(Gamma + Beta) ([2]; Exp. C, 0.5 mM, overnight, untreated 52.0%) | increase in proportions of colonies surviving G418 [3] | wells with surviving colonies ([3]; 0 of 24 wells without compounds) | increase in proportions of colonies surviving G418 ([3]; no colonies without compounds) |
| --- | --- | --- | --- | --- | --- | --- | --- | --- | --- | --- | --- |
| CCCC(=O)O [AB, arginine butyrate] | about 60% | greater than 90% | – | – | – | – | – | – | – | – | – |
| O=C(O)COc1ccccc1 [PAA, Phenoxyacetic acid] | – | – | 6% | 82.0% | 13% | 38.8% | 3.6% | 55.6% | > 600% | 6/24 | greater than 6 fold |
